Experimental findings from patent US6653344B2, “Pharmaceutical preparations containing a dibenzocyclooctane lignan derivative for treatment of neurodegenerative disease” (Elcom Bio Technology Co., Ltd., priority 2000, dated 2003) are described below.

What all share (type): cell-based
For assay [1], the system named is KA-insulted primary cultured rat cortical cells. Put plainly: Neuroprotection against KA-induced toxicity, cell viability by MTT assay. The settings on record: for Viability (%) KA-insulted: compound 1 µM for 1 hr, then 50 µM KA, 24 hr. Here is the method:
(§1) Primary cultures of mixed cortical cells containing both neuron and glia were prepared from fetal rats as described previously (Kim Y C, Kim S R, Markelonis G J and Oh T H (1998) Ginsenosides Rb1 and Rg3 protect cultured rat cortical cells from glutamate-induced neurodegeneration. J. Neurosci. Res. 53: 426-432).
(§2) The cortical cells were plated onto collagen-coated dishes at a density of 1×10^6 cells/ml. The cultured cells were grown in DMEM supplemented with 10% heat-inactivated fetal calf serum, 1 mM sodium pyruvate, 100 IU/ml pecicillin and 100 μg/ml streptomycin at 37° C. in a humidified atmosphere of 95% air/5% CO2. cultures were allowed to mature for 2 weeks before being used for experiments.
(§3) To culture broth of the cortical cells during being cultured, MTT(5 mg/ml) was added by 10% of the culture broth. The broth was cultured for more 3 hours. The formed formazan was dissolved by DMSO and was assayed absorption at 540 nm ((Mosmann T (1983) Rapid colorimetric assay for cellular growth and survival: Application to proliferation and cytotoxicity assays. J. Immuno. Methods 65: 55-61)
(§4) Glutamate receiptor is divided into NMDA receiptor which is activated by NMDA and non-NMDA receiptor which is activated by alpha-amino-3-hydroxy-5-methyl-4-isoxazole and kainic acid (KA). To first cultured cortical cells, the above compounds were each treated. The neuro-protective activities of the compounds were measured, after toxicities were induced by NMDA, the NMDA receiptor agonist, or KA, the non-NMDA receiptor agonist.
(§5) Rat cortical cultures were treated with compounds at the concentration of 1 M for 1 hr. The cultures were then exposed to 50 µM NMDA or 50 µM KA and were maintained for an additional 24 hr. […]. Cell viability was measured by the MTT assay. Optical density of control, NMDA- and KA treated were 1.20±0.10, 0.77±0.05 and 0.85±0.08, respectively. Viability was calculated as the same as Table 1. Values given represent the mean SD (n=3).
For orientation: Formazan colour is commonly taken as a measure of viable cells.

Assay [2] concerns NMDA-insulted primary cultured rat cortical cells. The assay can be described thus: Neuroprotection against NMDA-induced toxicity, cell viability by MTT assay. The following applies: for Viability (%) NMDA-insulted: compound 1 µM for 1 hr, then 50 µM NMDA, 24 hr. How it is done: as §1, §2, §3, §4, §5
In assay [3] the test system is intracellular Ca2+ ([Ca2+]i) in glutamate-damaged primary cultured rat cortical cells. Put plainly: Measurement of Ca2+ concentration in cells (Fura-2 AM). The settings on record: for Protection ([Ca2+]i): compound 1 M (1 μM) for 1 hr before 100 M glutamate; for Protection ([Ca2+]i) / [Ca2+]i: 24 hr; for [Ca2+]i: compound for 1 hr, control 85.6, glutamate-treated 419.0. How it is done: Therefore, the effects of Ca^2+ influx by glutamate according to deoxyschizandrin, gomisin N and wuweizisu C were investigated.
(§6) Rat cortical cultures were treated with compounds at the concentration of 1 M for 1 hr before exposure to 100 M glutamate and then maintained for 24 hr. Values given represent the mean SD (n=3).

In assay [4] the test system is nitric oxide (NO) content in glutamate-damaged primary cultured rat cortical cells. Put plainly: Measurement of nitrite (Griess reagent), NO content. The settings on record: 24 hr; for Nitrate: compound 1 µM for 1 hr before 100 µM glutamate, control 90.2, glutamate-treated 141.8; for Protection (NO content): compound 1 M (1 μM) for 1 hr before 100 M glutamate. Here is the method:
The content of nitrite isolated into culture broth from first cultured cortical cells was assayed by using Griess reagent by Dawson's method (Dawson V L, Brahbhatt H P, Mong J A and Dawson T M (1994) Expression of inducible nitric oxide synthase causes delayed neurotoxicity in primary neuronal-glial cortical cultures. Neuropharmacology 33: 1425-1430).
(§7) In case glutamate is treated to first cultured cortical cells of mice, formation of NO is increased. […] When schizandrin is treated at the 1 μM concentration, it decreased NO content increased by glutamate. […] When deoxyschizandrin, gomisin N and wuweizisu C are treated at 1 uM concentration to first cultured cortical cells toxicity-induced by glutamate, those maintained about 50% of normal state activity of GSH-px and glutathione decreased by glutamate and have protective activity on the activity of antioxidant enzymes.
as §6
A general note: Griess reagent forms a coloured azo dye with nitrite.

Assay [5] deals with GSH content in glutamate-injured primary cultured rat cortical cells. Put plainly: Measurement of total GSH (GSH+GSSG). The settings on record: 24 hr; for GSH: compound 1 µM for 1 hr before 100 µM glutamate, control 6.9, glutamate-treated 2.6; for Protection (GSH content): compound 1 M (1 uM) for 1 hr before 100 M glutamate. How it is done:
(§8) Cells were collected by adding 0.1M potassium phosphate buffer (pH 7.4) to culture-broth-removed remainings from first cultured cortical cells. The collected cells were treated by supersonic wave for 20 seconds and were centrifuged at 4° C. with 3,000 g for 20 minutes to obtain the supernatant.
In test tube, 70 μl solution containing 0.3 mM NADPH and 5 mM DTNB was prepared 0.100 μl of cell supernatant was added and final content 5 units/ml of GSSG-R was added thereto and was reacted. The increase of adsorption was measured at 412 nm for 1 minute. The content of GSH was converted and obtained by comparing the content of GSH with GSH standard. (Tietze F, Enzymatic method for quantative determination of nanogram amounts of total and oxidized glutathione, Anal Biochem 27: 502-522).
as §7, §6

Assay [6] has as its system MDA content in glutamate-injured primary cultured rat cortical cells. The assay can be described thus: Measurement of malondialdehyde (MDA) content, lipid peroxidation. The settings on record: for Protection (MDA content, lipid-peroxidation) / MDA: compound 1 µM for 1 hr before 100 µM glutamate, 24 hr; for MDA: control 70.2, glutamate-treated 198.2. How it is done:
as §8
To 500 μl of cell supernatant, 500 μl of 10% trichroroacetic acid(TCA) was added and leaved for 10 minutes. The precipitated protain was removed by using centrifuge. To the supernatant, final concentration of 0.2% of thiobarbituric acid is added to prepare 1 ml of solution and reacted at 100° C. for 1 hour. Adsorption was measured at 535 nm and converted and obtained by comparing the contents of MDA with 1,1,3,3-tetraethoxypropane as standard. (Yagi K A, 1976, Simple fluorometric assay for lipoperoxide in blood plasma, Biochem Med 15: 212-216).
NO which is over-formed by glutamate and superoxide anion are each combined to form peroxynitrite. (Almeida et al. 1998). Such formed peroxynitrite with free radical which is formed by glutamate toxicity induce oxidative stress on neurons and induce lipid-peroxidation of cells. Wuweizusu C suppressed 67% of lipid-peroxidation induced by glutamate.
as §6

The test system of assay [7] is GSH-px activity in glutamate-injured primary cultured rat cortical cells. The assay can be described thus: Measurement of glutathione peroxidase activity (GSH-px). The following applies: 24 hr; for GSH-px: compound 1 µM for 1 hr before 100 µM glutamate, control 18.7, glutamate-treated 9.2; for Protection (GSH-px activity): compound 1 M (1 uM) for 1 hr before 100 M glutamate. Here is the method:
as §8
1 ml solution in test tube comprising 100 mM potassium phosphate buffer (pH 7.4), 1 mM reduced glutathione (GSH), 0.2 mM NADPH, 0.5 mM H2O2 and 1.5 units/ml of GSSG-reductase (GSSG-r) was prepared and 10 μl of cell supernatant was added and reacted. The loss of adsoption at 340 nm was assayed and the activity of GSH-px was measured.
as §7, §6

Consider `COc1cc2c(c(OC)c1OC)-c1c(cc(OC)c(OC)c1OC)C[C@H](C)[C@H](C)C2` [Deoxyschizandrin, deoxyschizandrin], for which, in assay [1], the “neuroprotective activity against toxicity induced by KA (in words)” value is recorded as “selectively neuroprotective activity” and the “Viability (%) KA-insulted” value is on record as 38.2 ± 4.2 %. Also, the “Viability (%) NMDA-insulted” value in assay [2] amounted to 11.0 ± 3.5%. Further, in assay [3], the “effect on Ca2+ influx by glutamate (in words)” value is given as “did not significantly effect”, the “Protection ([Ca2+]i)” value was determined as 20.5% and the “[Ca2+]i” value stood at 350.7 ± 18.2 nM. In assay [4], the Nitrate worked out at 121.9 ± 3.1 nM and the “Protection (NO content)” value was 40.2%. For the same compound, in assay [5], the GSH turned out to be 4.7 ± 1.1 μmol/mg protein and the “Protection (GSH content)” value is given as 48.8%. In assay [5] (listed as deoxyschizandrin), the “Protection (GSH content)” value is recorded as “about 50%”. In assay [6], the “suppression of lipid-peroxidation induced by glutamate (in words)” value is “significantly suppressed”; the “Protection (MDA content, lipid-peroxidation)” value amounted to 49.2%; the MDA is given as 135.4 ± 10.7 nmol/mg protein. Moreover, in assay [7], the GSH-px is given as 15.3 ± 3.0 μmol NADPH consumed/min/mg pro and the “Protection (GSH-px activity)” value is on record as 62.1%. For the same compound, the “Protection (GSH-px activity)” value in assay [7] (listed as deoxyschizandrin) is reported as “about 50%”.

With `COc1cc2c(c(OC)c1OC)-c1c(cc3c(c1OC)OCO3)C[C@H](C)[C@H](C)C2` [Gomisin N, gomisin N], the “Viability (%) KA-insulted” value in assay [1] came to 25.5 ± 4.5%. For the same compound, in assay [2], the “neuroprotective activity against toxicity induced by NMDA (in words)” value is reported as “relatively better neuroprotective activity” and the “Viability (%) NMDA-insulted” value is given as 45.5 ± 6.8 %. Besides, in assay [3], the “Protection ([Ca2+]i)” value is on record as 60.3% and the “[Ca2+]i” value is 218.0 ± 11.9 nM. Further, the “Protection ([Ca2+]i)” value in assay [3] (listed as gomisin N) worked out at 50.3%. Further, in assay [4], the Nitrate came to 111.4 ± 3.3 nM and the “Protection (NO content)” value is given as 60.2%. Also, in assay [5], the GSH is reported as 4.8 ± 1.3 μmol/mg protein and the “Protection (GSH content)” value stood at 51.2%. In addition, the “Protection (GSH content)” value in assay [5] (listed as gomisin N) was “about 50%”. Besides, in assay [6], the “suppression of lipid-peroxidation induced by glutamate (in words)” value is “significantly suppressed”; the “Protection (MDA content, lipid-peroxidation)” value turned out to be 57.0%; the MDA stood at 125.6 ± 11.1 nmol/mg protein. In assay [7], the GSH-px is listed as 14.6 ± 4.1 μmol NADPH consumed/min/mg pro and the “Protection (GSH-px activity)” value is given as 56.8%. Moreover, in assay [7] (listed as gomisin N), the “Protection (GSH-px activity)” value was “about 50%”.

Regarding `COc1c2c(cc3c1-c1c(cc4c(c1OC)OCO4)C[C@H](C)[C@H](C)C3)OCO2` [Wuweizisu C, wuweizisu C], in assay [1], the “Viability (%) KA-insulted” value was determined as 15.0 ± 3.9%. In assay [2], the “neuroprotective activity against toxicity induced by NMDA (in words)” value was “has neuroprotective activity” and the “Viability (%) NMDA-insulted” value amounted to 52.1 ± 7.1 %. Further, in assay [3], the “Protection ([Ca2+]i)” value is given as 67.9% and the “[Ca2+]i” value stood at 192.6 ± 9.1 nM. Moreover, in assay [4], the Nitrate was found to be 107.6 ± 2.9 nM and the “Protection (NO content)” value was 65.8%. In assay [5], the GSH is on record as 4.4 ± 0.9 μmol/mg protein and the “Protection (GSH content)” value is recorded as 41.9%. The “Protection (GSH content)” value in assay [5] (listed as wuweizisu C) is reported as “about 50%”. Further, in assay [6], the “Protection (MDA content, lipid-peroxidation)” value came to 68.7% and the MDA is reported as 110.5 ± 9.0 nmol/mg protein. Besides, in assay [6] (listed as Wuweizusu C), the “Protection (MDA content, lipid-peroxidation)” value stood at 67%. Besides, in assay [7], the GSH-px is reported as 13.9 ± 3.9 μmol NADPH consumed/min/mg pro and the “Protection (GSH-px activity)” value is on record as 49.5%. Also, in assay [7] (listed as wuweizisu C), the “Protection (GSH-px activity)” value is “about 50%”.
